Experimental data reported in patent US20050209157A1, “Short bioactive peptides and methods for their use” (priority 2001, published 2005).
No end group written: not given here.

Legend:
[1] = test system: S. typhimurium 14028S; type: cell-based, Salmonella typhimurium; details: Table 14
[2] = test system: S. epidermidis C621; type: cell-based, Staphylococcus epidermidis; details: Table 15
[3] = test system: Pseudomonas aeruginosa H187; type: cell-based; details: Table 15; in µg/mL
[4] = test system: E. coli UB1005; type: cell-based, Escherichia coli; details: Table 14
[5] = test system: S. aureus (MRSA); type: cell-based, Staphylococcus aureus; details: Table 15, strain SAP0017; in µg/mL
[6] = test system: P. aeruginosa H374; type: cell-based, Pseudomonas aeruginosa; details: Table 14; in µg/mL
[7] = test system: Candida albicans 105; type: cell-based; details: Table 15; in µg/mL

Substance | MIC S. typhimurium 14028S [1] | MIC S. epidermidis C621 [2] | MIC P. aeruginosa H187 [3] | MIC E. coli UB1005 [4] | MIC S. aureus SAP0017 [5] | MIC P. aeruginosa H374 [6] | MIC C. albicans 105 [7]
FAKLLAKLAKKAA-NH2 [P93 (59)] | > 128 µg/mL | > 128 µg/mL | >128 | 128 µg/mL | >128 | 128 | 64
FALLKALKKAL-NH2 [P171 (132)] | > 128 µg/mL | 128 µg/mL | >128 | 32 µg/mL | >128 | >128 | >128
FAKKLAKALL-NH2 [P58 (38)] | > 128 µg/mL | > 128 µg/mL | >128 | > 128 µg/mL | >128 | >128 | 64
FAKLWAKLAKKL-NH2 [P136 (98)] | > 128 µg/mL | 128 µg/mL | >128 | 128 µg/mL | >128 | >128 | 64
MPKEKVFLKIEKMGRNIRN-NH2 [P107 (71)] | > 128 µg/mL | > 128 µg/mL | >128 | > 128 µg/mL | >128 | >128 | >128
KWKLF-NH2 [P131 (93)] | > 128 µg/mL | > 128 µg/mL | >128 | > 128 µg/mL | >128 | >128 | >128
FAKLLAKAFKKAL-NH2 [P114 (78)] | 128 µg/mL | 64 µg/mL | >128 | 32 µg/mL | >128 | >128 | 64
FGKGIGKVGKKLL-NH2 [P132 (94)] | > 128 µg/mL | > 128 µg/mL | >128 | 128 µg/mL | >128 | >128 | 128
FAFAKIIAKIAKKII-NH2 [P140 (102)] | > 128 µg/mL | > 128 µg/mL | >128 | > 128 µg/mL | >128 | >128 | >128
FAKIIAKIAKKI-NH2 [P143 (105)] | > 128 µg/mL | > 128 µg/mL | >128 | > 128 µg/mL | >128 | >128 | >128
FAKLLAKLAKAKL-NH2 [P65 (44)] | > 128 µg/mL | > 128 µg/mL | >128 | 128 µg/mL | >128 | 64 | 64
FAKLLAKLAKKEL-NH2 [P126 (88)] | > 128 µg/mL | > 128 µg/mL | >128 | > 128 µg/mL | >128 | >128 | >128
KFKKLAKKW-NH2 [P175 (136)] | > 128 µg/mL | > 128 µg/mL | >128 | > 128 µg/mL | >128 | >128 | >128
FAKLA-NH2 [P128 (90)] | > 128 µg/mL | 128 µg/mL | >128 | 128 µg/mL | >128 | >128 | 128
FALALKA-NH2 [P141 (103)] | > 128 µg/mL | > 128 µg/mL | >128 | > 128 µg/mL | >128 | >128 | >128
FAKLLAKLAKKSL-NH2 [P127 (89)] | > 128 µg/mL | 64 µg/mL | >128 | 128 µg/mL | >128 | >128 | 32
FAKLLAKLAKKFAL-NH2 [P120 (82)] | > 128 µg/mL | > 128 µg/mL | >128 | > 128 µg/mL | >128 | 128 | 64

Substance | MIC S. typhimurium 14028S [1] | MIC S. epidermidis C621 [2] | MIC P. aeruginosa H187 [3] | MIC E. coli UB1005 [4] | MIC S. aureus SAP0017 [5] | MIC P. aeruginosa H374 [6] | MIC C. albicans 105 [7]
KAKLF-NH2 [P130 (92)] | > 128 µg/mL | > 128 µg/mL | >128 | > 128 µg/mL | >128 | >128 | >128
FAKKLAKKLAKAAL-NH2 [P76 (52)] | 128 µg/mL | > 128 µg/mL | >128 | 16 µg/mL | >128 | 64 | 64
KFKKLAKKF-NH2 [P174 (135)] | > 128 µg/mL | > 128 µg/mL | >128 | > 128 µg/mL | >128 | >128 | >128
KAKLAKKALAKLL-NH2 [P149 (111)] | > 128 µg/mL | > 128 µg/mL | >128 | 32 µg/mL | >128 | 128 | 128
FAFGKGIGKVGKKLL-NH2 [P133 (95)] | > 128 µg/mL | > 128 µg/mL | >128 | > 128 µg/mL | >128 | >128 | >128
FALAKALKKAL-NH2 [P166 (127)] | > 128 µg/mL | > 128 µg/mL | >128 | > 128 µg/mL | >128 | >128 | >128
FAKGVGKVGKKAL-NH2 [P137 (99)] | > 128 µg/mL | > 128 µg/mL | >128 | > 128 µg/mL | >128 | >128 | >128
FAKLLFKALKKAL-NH2 [P112 (76)] | > 128 µg/mL | 64 µg/mL | >128 | > 128 µg/mL | >128 | >128 | 128
FAKLF-NH2 [P129 (91)] | > 128 µg/mL | 32 µg/mL | >128 | 64 µg/mL | >128 | >128 | 128
FALLKL-NH2 [P168 (129)] | > 128 µg/mL | 128 µg/mL | 128 | 128 µg/mL | >128 | 128 | 128
FAKLLAKLAK-NH2 [P123 (85)] | > 128 µg/mL | 16 µg/mL | >128 | 64 µg/mL | >128 | >128 | 64
FAKAIAKIAFGKGIGKVGKKLL-NH2 [P134 (96)] | > 128 µg/mL | 128 µg/mL | >128 | 128 µg/mL | >128 | 128 | 64
FAKLLAKLAKAKG-NH2 [P96 (62)] | > 128 µg/mL | > 128 µg/mL | >128 | > 128 µg/mL | >128 | >128 | >128
FAKIIAKIAKIAKKIL-NH2 [P139 (101)] | > 128 µg/mL | 64 µg/mL | 128 | 64 µg/mL | >128 | >128 | 128
KWKLAKKALALL-NH2 [P142 (104)] | 128 µg/mL | 128 µg/mL | >128 | 64 µg/mL | >128 | >128 | 64
FKRLAKIKVLRLAKIKR-NH2 [P147 (109)] | 128 µg/mL | 64 µg/mL | >128 | 64 µg/mL | >128 | 128 | 64
FAKLLAKLAKKGL-NH2 [P152 (114)] | > 128 µg/mL | 32 µg/mL | >128 | 32 µg/mL | >128 | >128 | 128
